One may read the Ki as the equilibrium dissociation constant of an inhibitor or competing ligand from its target. Read a low Ki as a stronger hold on the target.

For the test, the target named is T1, Neuromedin-K receptor (Homo sapiens, UniProt P29371).
T1 sequence (P29371 whole entry): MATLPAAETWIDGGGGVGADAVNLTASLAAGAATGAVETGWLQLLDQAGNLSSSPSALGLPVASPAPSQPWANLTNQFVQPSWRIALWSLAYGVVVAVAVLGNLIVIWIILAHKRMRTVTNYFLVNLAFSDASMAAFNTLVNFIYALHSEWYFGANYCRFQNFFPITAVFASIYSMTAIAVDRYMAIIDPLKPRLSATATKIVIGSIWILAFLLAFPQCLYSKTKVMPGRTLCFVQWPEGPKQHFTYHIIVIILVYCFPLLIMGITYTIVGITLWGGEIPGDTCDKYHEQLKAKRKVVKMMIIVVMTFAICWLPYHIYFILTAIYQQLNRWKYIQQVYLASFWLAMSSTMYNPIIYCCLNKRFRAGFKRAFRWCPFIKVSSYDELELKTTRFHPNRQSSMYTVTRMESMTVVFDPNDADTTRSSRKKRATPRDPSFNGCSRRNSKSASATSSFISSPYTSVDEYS

For `CC(=O)NC1(c2ccccc2)CCN(CCC(CN(C)C(=O)c2ccccc2)c2ccc(Cl)c(Cl)c2)CC1` (configuration not stated) [SR 48968], the Ki was found to be 0.368 µM.
Compound `CC(C)Oc1cccc(CC(=O)N2CCC[C@](CC[N+]34CCC(c5ccccc5)(CC3)CC4)(c3ccc(Cl)c(Cl)c3)C2)c1` displayed a Ki of 1.08 µM.

(Values after BindingDB's records for PubMed 7616392 (Sanofi Recherche, 1995).)
